From patent US20260262643A1, “HERBICIDAL BENZOXAZINES” (FMC CORPORATION, priority 2022, published 2026)

Columns and labels:
ducksalad = experiment: Test D flooded paddy test; type: in vivo, Heteranthera limosa; conditions: 250 g ai/ha, applied to paddy water, visual rating after 13 to 14 days, scale 0 to 100 (0 no effect, 100 complete control)
In short: (§1)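 Plants grown to the 2-leaf stage; pots flooded to 3 cm above soil at treatment and held at that depth throughout. Test compounds applied directly to the paddy water. After 13 to 14 days in a greenhouse, response was rated visually versus controls on a 0 (no effect) to 100 (complete control) scale.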

ryegrass, Italian [1] = experiment: Test C preemergence; type: in vivo, Lolium multiflorum; conditions: for Plant response rating, Ryegrass, Italian: Preemergence
In short: (§2)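 Seeds sown in loam soil–sand blend received a directed preemergence soil spray of test chemical in non-phytotoxic solvent with surfactant; postemergence plants (2–10 cm, one- to two-leaf stage) were sprayed with the same formulation. Greenhouse-held 10 days, then visually rated for injury versus untreated controls, 0 (no effect) to 100 (complete control).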

barnyardgrass [2] = experiment: Test D flooded paddy test; type: in vivo, Echinochloa crus-galli; conditions: 250 g ai/ha, applied to paddy water, visual rating after 13 to 14 days, scale 0 to 100 (0 no effect, 100 complete control)
In short: as §1

ragweed [3] = experiment: Test C postemergence; type: in vivo, Ambrosia artemisiifolia; conditions: Postemergence, 1000 g ai/ha, 10 days, visual 0 to 100 scale (0 no effect, 100 complete control)
In short: as §2

pigweed, palmer [4] = experiment: Test C preemergence; type: in vivo, Amaranthus palmeri; conditions: for Plant response rating, Pigweed, Palmer: Preemergence
In short: as §2

blackgrass [5] = experiment: Test C preemergence; type: in vivo, Alopecurus myosuroides; conditions: Preemergence
In short: as §2

green foxtail [6] = experiment: Test C postemergence; type: in vivo, Setaria viridis; conditions: 10 days
In short: as §2

horseweed = experiment: Test C postemergence; type: in vivo, Erigeron canadensis; conditions: 10 days
In short: as §2

kochia [7] = experiment: Test C postemergence; type: in vivo, Bassia scoparia; conditions: 10 days
In short: as §2

barnyardgrass [8] = experiment: Test C postemergence; type: in vivo, Echinochloa crusgalli
In short: as §2

kochia [9] = experiment: Test C preemergence; type: in vivo, Bassia scoparia; conditions: for Plant response rating, Kochia: Preemergence
In short: as §2

ryegrass, Italian [10] = experiment: Test C postemergence; type: in vivo, Lolium multiflorum; conditions: Postemergence, 1000 g ai/ha, 10 days, visual 0 to 100 scale (0 no effect, 100 complete control)
In short: as §2

green foxtail [11] = experiment: Test C preemergence; type: in vivo, Setaria viridis; conditions: for Plant response rating, Foxtail, Green: Preemergence
In short: as §2

galium = experiment: Test C postemergence; type: in vivo, Galium aparine; conditions: Postemergence, 10 days, visual 0 to 100 scale (0 no effect, 100 complete control)
In short: as §2

blackgrass [12] = experiment: Test C postemergence; type: in vivo, Alopecurus myosuroides; conditions: 10 days
In short: as §2

sedge, umbrella = experiment: Test D flooded paddy test; type: in vivo, Cyperus difformis; conditions: 250 g ai/ha, applied to paddy water, visual rating after 13 to 14 days, scale 0 to 100 (0 no effect, 100 complete control)
In short: as §1

rice = experiment: Test D flooded paddy test; type: in vivo, Oryza sativa; conditions: 250 g ai/ha, applied to paddy water, visual rating after 13 to 14 days, scale 0 to 100 (0 no effect, 100 complete control)
In short: as §1

ragweed [13] = experiment: Test C preemergence; type: in vivo, Ambrosia artemisiifolia; conditions: for Plant response rating, Ragweed: Preemergence
In short: as §2

barnyardgrass [14] = experiment: Test C preemergence; type: in vivo, Echinochloa crusgalli; conditions: Preemergence
In short: as §2

pigweed, palmer [15] = experiment: Test C postemergence; type: in vivo, Amaranthus palmeri; conditions: 10 days
In short: as §2

oat, wild [16] = experiment: Test C preemergence; type: in vivo, Avena fatua
In short: as §2

corn [17] = experiment: Test C preemergence; type: in vivo, Zea mays
In short: as §2

soybean = experiment: Test C preemergence; type: in vivo, Glycine max
In short: as §2

corn [18] = experiment: Test C postemergence; type: in vivo, Zea mays; conditions: 500 g ai/ha, 10 days
In short: as §2

wheat = experiment: Test C preemergence; type: in vivo, Triticum aestivum
In short: as §2

oat, wild [19] = experiment: Test C postemergence; type: in vivo, Avena fatua; conditions: 500 g ai/ha, postemergence, 10 days, 0 to 100 scale (0 no effect, 100 complete control)
In short: as §2

[20] = 1000 g ai/ha, visual rating after 10 days, 0 to 100 scale (0 no effect, 100 complete control)
[21] = Postemergence, 1000 g ai/ha, visual 0 to 100 scale (0 no effect, 100 complete control)
[22] = 500 g ai/ha, preemergence, 0 to 100 scale (0 no effect, 100 complete control)
[23] = 500 g ai/ha, visual rating after 10 days, 0 to 100 scale (0 no effect, 100 complete control)
[24] = Postemergence, 500 g ai/ha, visual 0 to 100 scale (0 no effect, 100 complete control)
[25] = 125 g ai/ha, 0 to 100 scale, 0 no effect, 100 complete control
[26] = 500 g ai/ha, postemergence, 0 to 100 scale (0 no effect, 100 complete control)
[27] = Preemergence, 125 g ai/ha, 0 to 100 scale, 0 no effect, 100 complete control

Compound	Plant response rating, Ducksalad (Flood) (ducksalad)	Plant response rating, Ryegrass, Italian (ryegrass, Italian [1]; [20])	Plant response rating, Barnyardgrass (Flood) (barnyardgrass [2])	Plant response rating, Ragweed (ragweed [3])	Plant response rating, Pigweed, Palmer (pigweed, palmer [4]; [20])	Plant response rating, Blackgrass (blackgrass [5]; [20])	Plant response rating, Foxtail, Green (green foxtail [6]; [21])	Plant response rating, Horseweed (horseweed; [21])	Plant response rating, Kochia (kochia [7]; [21])	Plant response rating, Kochia (kochia [9]; [20])	Plant response rating, Ryegrass, Italian (ryegrass, Italian [10])	Plant response rating, Foxtail, Green (green foxtail [11]; [20])	Plant response rating, Galium (galium; 1000 g ai/ha)	Plant response rating, Blackgrass (blackgrass [12]; [21])	Plant response rating, Sedge, Umbrella (Flood) (sedge, umbrella)	Plant response rating, Rice (Flood) (rice)	Plant response rating, Ragweed (ragweed [13]; [20])	Plant response rating, Barnyardgrass (barnyardgrass [14]; [20])	Plant response rating, Pigweed, Palmer (pigweed, palmer [15]; [21])	other results
Cc1nccc(-c2cccc(C(=O)N3C[C@H](C)Oc4c(C)cccc43)c2)n1 [Compound 250]	0	90	0	50	80	30	80	0	70	80	40	100	50	20	0	0	0	90	50	Plant response rating, Barnyardgrass (barnyardgrass [8]; Postemergence, 1000 g ai/ha, 0 to 100 scale, 0 no effect, 100 complete control): 50
CC(C)c1ncn(-c2cc(O)c(O)c(C(=O)N3C[C@H](C)Oc4c(Cl)cccc43)c2)n1 [Compound 272, [(2S)-8-chloro-2-methyl-2,3-dihydro-1,4-benzoxazin-4-yl]-[2,3-dihydroxy-5-(3-isopropyl-1,2,4-triazol-1-yl)phenyl]methanone]	0	–	0	–	–	–	–	–	–	–	–	–	–	–	0	0	–	–	–	Ryegrass, Italian plant response rating (ryegrass, Italian [1]; [22]): 0; Pigweed, Palmer plant response rating (pigweed, palmer [4]; [22]): 90; Plant response rating, Blackgrass (blackgrass [5]; [23]): 0; Plant response rating, Foxtail, Green (green foxtail [6]; [24]): 0; Plant response rating, Horseweed (horseweed; [24]): 10; Plant response rating, Barnyardgrass (barnyardgrass [8]; Postemergence, 500 g ai/ha, 10 days, visual 0 to 100 scale (0 no effect, 100 complete control)): 0; Kochia plant response rating (kochia [9]; [22]): 0; Oat, Wild plant response rating (oat, wild [16]; [22]): 0; Corn plant response rating (corn [17]; [22]): 0; Foxtail, Green plant response rating (green foxtail [11]; [22]): 0; Soybean plant response rating (soybean; [22]): 0; Corn plant response rating (crop injury, 0 = no effect, 100 = complete kill) at 500 g/ha (corn [18]; Zea mays, post-emergence, 240 h, Postemergence, visual 0 to 100 scale (0 no effect, 100 complete control)): 0%; Plant response rating, Galium (galium; 500 g ai/ha): 0; pest or weed control at 500 g/ha (blackgrass [12]; Alopecurus myosuroides, post-emergence, 240 h, Postemergence, 500 g ai/ha, visual 0 to 100 scale (0 no effect, 100 complete control), read-out: Plant response rating, Blackgrass): 0%; Wheat plant response rating (wheat; [22]): 0; Ragweed plant response rating (ragweed [13]; [22]): 30; Plant response rating, Barnyardgrass (barnyardgrass [14]; [23]): 0
Cc1ncc(-c2cccc(C(=O)N3C[C@H](C)Oc4c(Cl)cccc43)c2)s1 [Compound 296]	0	80	0	80	100	50	80	60	90	90	30	100	100	80	0	0	70	100	90	Plant response rating, Barnyardgrass (barnyardgrass [8]; Postemergence, 1000 g ai/ha, 10 days, visual 0 to 100 scale (0 no effect, 100 complete control)): 50
CCOC[C@H]1CN(C(=O)c2cc(-n3cnc(C(C)C)n3)cc3c2OCO3)c2cccc(Cl)c2O1 [Compound 400]	45	–	15	–	–	–	–	–	–	–	–	–	–	–	40	0	–	–	–	Plant response rating, Ryegrass, Italian (ryegrass, Italian [1]; [25]): 60; Plant response rating, Pigweed, Palmer (pigweed, palmer [4]; [25]): 100; Plant response rating, Blackgrass (blackgrass [5]; [25]): 0; Plant response rating, Foxtail, Green (green foxtail [6]; [26]): 40; Plant response rating, Horseweed (horseweed; [26]): 20; Plant response rating, Kochia (kochia [7]; [26]): 90; Plant response rating, Barnyardgrass (barnyardgrass [8]; 500 g ai/ha, postemergence, 10 days, 0 to 100 scale (0 no effect, 100 complete control)): 50; Plant response rating, Kochia (kochia [9]; [25]): 50; Plant response rating, Oat, Wild (oat, wild [16]; [27]): 0; Plant response rating, Corn (corn [17]; [27]): 0; Plant response rating, Foxtail, Green (green foxtail [11]; [25]): 70; Plant response rating, Soybean (soybean; [27]): 20; Plant response rating, Corn (corn [18]; postemergence, 0 to 100 scale (0 no effect, 100 complete control)): 50; Plant response rating, Blackgrass (blackgrass [12]; [26]): 70; Plant response rating, Wheat (wheat; [27]): 0; Plant response rating, Ragweed (ragweed [13]; [25]): 30; Plant response rating, Barnyardgrass (barnyardgrass [14]; [25]): 50; Plant response rating, Oat, Wild (oat, wild [19]): 20; Plant response rating, Pigweed, Palmer (pigweed, palmer [15]; [26]): 100
